# Measured values from patent publication US6512166B1, “Combinations of fungal cell wall degrading enzyme and fungal cell membrane affecting compound” (priority 1991, dated 2003).
# Like-named read-outs stand apart in the source and are kept apart here.
# Experiments:
# B. cinerea strain 12 = assay: Inhibition of spore germination, ELISA plate assay (Examples III-XVI, XVIII); format: cell-based, Botrytis cinerea; conditions: Table 21; concentration of miconazole for 50% inhibition, alone or with enzyme at its ED10 concentration
# Protocol: (§1) The concentration where fungal cell wall degrading enzyme individually provides a specified percentage fungal inhibition or where antifungal fungal cell membrane affecting compound individually provides a specific percentage fungal inhibition can be determined as follows: Assays are performed under sterile conditions. Equal volumes of spore suspensions, 3× potato dextrose broth, and the test solution or suspension in 5 mM Tris-HCl (pH 6.0) or 5 mM potassium phosphate buffer (pH 6.7) are mixed. The control is the same as the test solution except for the control the antifungal agent is omitted. The assay mixtures (total volume 45 or 30 μl) are incubated on flat-bottomed ELISA plates, each containing 96 wells, with 2,000 to 3,000 spores per well, at 25° C. After 22 to 30 hours, the plates are placed under an inverted microscope. The percentage of conidia germinating is determined as the percentage of the first 100 spores randomly found in a well. In addition, the lengths of 20 germ tubes are measured and averaged. All experiments are performed twice, with three replicates for each treatment. The inhibition values obtained in the two experiments are combined and averaged, and standard deviations are calculated from the 6 data points. The values obtained for the control are taken as 0% inhibition and all other values are divided by the values obtained for the control and multiplied by 100% to obtain percent inhibition. Determination of concentration corresponding to a particular percent inhibition is carried out by subjecting dose-response curves to regression analysis by using a binomial regression of the third order, with R^2 ranging between 0.95 and 0.99.
# (§2) Assays were carried out by the procedure described in the summary of the invention section. Dose response curves were obtained by probit analysis of data collected from two separate experiments with each experiment involving three treatment replicates.
# Each of 8 antifungal fungal cell membrane affecting compounds were used in combination with each of 8 or 6 fungal cell wall degrading enzymes to provide 50% inhibition (ED50) of B. cinerea strain 12 spore germination. Each fungal cell wall degrading enzyme was used at a concentration giving 10% inhibition of spore germination when used alone in combination with an amount of antifungal fungal cell membrane affecting compound so the combination gave 50% inhibition of spore germination.
# (§3) Dose response curves were determined for each antifungal fungal cell membrane affecting compound and for each fungal cell wall degrading enzyme singly. Then each fungal cell wall degrading enzyme at a concentration giving 10% inhibition when used alone was combined with increasing amounts of antifungal fungal cell membrane affecting compound. Then the concentration of antifungal fungal cell membrane affecting compound causing the ED50 for each combination was calculated by probit analysis of data collected from two experiments with three treatment replicates for each experiment. Assays for inhibition of spore germination were carried out as described in the summary of invention section above.
# The relative level of synergism (RS below) for each combination was calculated by applying Limpel's formula: Ee=X+Y−(XY/100) as described in Richer, D. L, Pestic. Sci. 19, 309-315, 1987. In Limpel's formula, X and Y are the percentages of inhibition relative to each compound used alone and Ee is the expected effect for an additional (non-synergistic) effect. If the combination of the two agents produces an observed effect (Eo) greater than Ee, synergism exists, and as the difference between Eo and Ee increases, the level of synergism is greater. […]
# [1] = Solubility, guidance for forming solutions
# Text: Compositions for use in the systems herein are readily formulated by admixing the fungal cell wall degrading enzymes and the antifungal fungal cell membrane affecting compounds with non-toxic carriers appropriate for the particular use for a composition, e.g., agriculturally acceptable carriers for agricultural uses and pharmaceutically acceptable carriers for medicinal uses. They may be formulated as liquids (solutions or suspensions) or as solids. Since the fungal cell wall degrading enzymes need free water for activity, water must be present at the time of function. […] Water is a preferred vehicle where components are soluble in it. […] Organic solvents can also be used and may be required in some cases if a solution is desired. Guidance for forming solutions follows. […] Suspension can also be employed.
# Botrytis cinerea = assay: Inhibition of spore germination, Eppendorf tube assay (Examples I and II); format: cell-based; conditions: for expected percent inhibition for an additive response (Limpel's formula) at 0.5 µg/mL: read-out: Ee, expected effect from an additive response according to Limpel's formula, percent inhibition; for ED50 of fungicide (dose effective for 50% inhibition): Table 9
# [2] = tested on: Fusarium oxysporum strain FOP1; assay: Inhibition of spore germination, ELISA plate assay (Examples V-XIV, XVII); format: cell-based; conditions: Table 29; concentration of miconazole for 50% inhibition, alone or with enzyme at its ED10 concentration
# Protocol: as §1, §2, §3
# The relative level of synergism (RS below) for each combination was calculated by applying Limpel's formula: Ee=X+Y−(XY/100) as described in Richer, D. L, Pestic. Sci. 19, 309-315, 1987. In Limpel's formula, X and Y are the percentages of inhibition relative to each compound used alone and Ee is the expected effect for an additional (non-synergistic) effect. If the combination of the two agents produces an observed effect (Eo) greater than Ee, synergism exists, and as the difference between Eo and Ee increases, the level of synergism is greater. In this experiment, the X value (percentage inhibition by fungal cell wall degrading enzyme when used alone was chosen to be 10 (10% inhibition of spore germination when used alone) and the observed effect, Eo, was 50 (i.e., 50% inhibition of spore germination). The Y values were obtained from the determined concentrations of antifungal cell membrane affecting compound causing the ED50 for a combination and the dose response curves for the antifungal cell membrane affecting compound used alone—i.e., the Y value was the percent inhibition for the antifungal fungal cell membrane affecting compound when used alone for the concentration of antifungal fungal cell membrane affecting compound that was determined to cause the ED50 for the combination. Ee values were then calculated from Limpel's formula. […]
structure (smiles),measurement,setting,value
"Clc1ccc(COC(Cn2ccnc2)c2ccc(Cl)cc2Cl)c(Cl)c1 (stereo not drawn) [Miconazole, miconazole]",ED50,B. cinerea strain 12,3.0 (2-4) ng ml^−1
same,solubility (solvent in which the substance dissolves),[1],dissolves in 50% (v:v) ethanol
same,inhibition at 0.5 µg/mL,"Botrytis cinerea; Botrytis cinerea, Table 4, enzyme 0 μg ml^−1 (fungicide alone), flusilazole 5 ng ml^−1, miconazole 0.5 μg ml^−1, read-out: % inhibition",19%
same,inhibition at 0.5 µg/mL,"Botrytis cinerea; Botrytis cinerea, Table 5, endochitinase from G. virens strain 41 at 25 μg ml^−1, with flusilazole 5 ng ml^−1, miconazole 0.5 μg ml^−1 or none (enzyme alone), read-out: % inhibition",99%
same,inhibition at 0.5 µg/mL,"Botrytis cinerea; Botrytis cinerea, Table 5, enzyme 0 μg ml^−1 (fungicide alone), flusilazole 5 ng ml^−1, miconazole 0.5 μg ml^−1, read-out: % inhibition",19%
same,inhibition at 0.5 µg/mL,"Botrytis cinerea; Botrytis cinerea, Table 6, enzyme 0 μg ml^−1 (fungicide alone), flusilazole 5 ng ml^−1, miconazole 0.5 μg ml^−1, read-out: % inhibition",19%
same,inhibition at 0.5 µg/mL,"Botrytis cinerea; Botrytis cinerea, Table 7, enzyme 0 μg ml^−1 (fungicide alone), flusilazole 5 ng ml^−1, miconazole 0.5 μg ml^−1, read-out: % inhibition",19%
same,expected percent inhibition for an additive response (Limpel's formula) at 0.5 µg/mL,"Botrytis cinerea; Botrytis cinerea, with Chitob. (P1) 25 μg ml^−1, flusilazole 5 ng ml^−1, miconazole 0.5 μg ml^−1",27.9%
same,inhibition at 0.5 µg/mL,"Botrytis cinerea; Botrytis cinerea, with Chitob. (P1) 25 μg ml^−1, flusilazole 5 ng ml^−1, miconazole 0.5 μg ml^−1, read-out: Io, percent inhibition observed",85%
same,expected percent inhibition for an additive response (Limpel's formula) at 0.5 µg/mL,"Botrytis cinerea; Botrytis cinerea, with Endoc. (41) 25 pg ml^−1 (so in the source), flusilazole 5 ng ml^−1, miconazole 0.5 μg ml^−1",19%
same,inhibition at 0.5 µg/mL,"Botrytis cinerea; Botrytis cinerea, with Endoc. (41) 25 pg ml^−1 (so in the source), flusilazole 5 ng ml^−1, miconazole 0.5 μg ml^−1, read-out: Io, percent inhibition observed",66%
same,expected percent inhibition for an additive response (Limpel's formula) at 0.5 µg/mL,"Botrytis cinerea; Botrytis cinerea, with Endoc. (P1) 25 μg ml^−1, flusilazole 5 ng ml^−1, miconazole 0.5 μg ml^−1",42.5%
same,inhibition at 0.5 µg/mL,"Botrytis cinerea; Botrytis cinerea, with Endoc. (P1) 25 μg ml^−1, flusilazole 5 ng ml^−1, miconazole 0.5 μg ml^−1, read-out: Io, percent inhibition observed",100%
same,expected percent inhibition for an additive response (Limpel's formula) at 0.5 µg/mL,"Botrytis cinerea; Botrytis cinerea, with Glucan. (P1) 25 μg ml^−1, flusilazole 5 ng ml^−1, miconazole 0.5 μg ml^−1",23%
same,inhibition at 0.5 µg/mL,"Botrytis cinerea; Botrytis cinerea, with Glucan. (P1) 25 μg ml^−1, flusilazole 5 ng ml^−1, miconazole 0.5 μg ml^−1, read-out: Io, percent inhibition observed",70%
same,inhibition at 0.5 µg/mL,"Botrytis cinerea; Table 4, endochitinase from T. harzianum strain P1 at 75 μg ml^−1, with flusilazole 5 ng ml^−1, miconazole 0.5 μg ml^−1 or none (enzyme alone), read-out: % inhibition",100%
same,inhibition at 0.5 µg/mL,"Botrytis cinerea; Table 6, chitobiosidase from T. harzianum strain P1 at 75 μg ml^−1, with flusilazole 5 ng ml^−1, miconazole 0.5 μg ml^−1 or none (enzyme alone), read-out: % inhibition",100%
same,inhibition at 0.5 µg/mL,"Botrytis cinerea; Table 7, glucan 1,3-β-glucosidase from T. harzianum strain P1 at 100 μg ml^−1, with flusilazole 5 ng ml^−1, miconazole 0.5 μg ml^−1 or none (enzyme alone), read-out: % inhibition",100%
same,ED50 of fungicide (dose effective for 50% inhibition),Botrytis cinerea; no endochitinase (0 μg ml^−1),3.0 µg/mL
same,ED50 of fungicide (dose effective for 50% inhibition),Botrytis cinerea; with endochitinase from T. harzianum strain P1 at 10 μg ml^−1,0.06 µg/mL
same,ED50 of fungicide (dose effective for 50% inhibition),Botrytis cinerea; with endochitinase from T. harzianum strain P1 at 25 μg ml^−1,0.04 µg/mL
same,ED50 of fungicide,"Botrytis cinerea; Table 10, no chitobiosidase (0 μg ml^−1)",3.0 µg/mL
same,ED50 of fungicide,"Botrytis cinerea; Table 10, with chitobiosidase from T. harzianum strain P1 at 25 μg ml^−1",0.06 µg/mL
same,ED50 of fungicide,"Botrytis cinerea; Table 10, with chitobiosidase from T. harzianum strain P1 at 50 μg ml^−1",0.045 µg/mL
same,ED50 of fungicide,"Botrytis cinerea; Table 10, with chitobiosidase from T. harzianum strain P1 at 75 μg ml^−1",0.04 µg/mL
same,ED50 of fungicide,"Botrytis cinerea; Table 10, with chitobiosidase from T. harzianum strain P1 at 100 μg ml^−1",0.03 µg/mL
same,ED50 of fungicide,"Botrytis cinerea; Table 11, no glucosidase (0 μg ml^−1)",3.0 µg/mL
same,ED50 of fungicide,"Botrytis cinerea; Table 11, with glucan 1,3-β-glucosidase from T. harzianum strain P1 at 25 μg ml^−1",0.27 µg/mL
same,ED50 of fungicide,"Botrytis cinerea; Table 11, with glucan 1,3-β-glucosidase from T. harzianum strain P1 at 50 μg ml^−1",0.04 µg/mL
same,ED50 of fungicide,"Botrytis cinerea; Table 11, with glucan 1,3-β-glucosidase from T. harzianum strain P1 at 75 μg ml^−1",0.0018 µg/mL
same,ED50 of fungicide,"Botrytis cinerea; Table 12, no endochitinase (0 μg ml^−1)",3.0 µg/mL
same,ED50 of fungicide,"Botrytis cinerea; Table 12, with endochitinase from G. virens strain 41 at 25 μg ml^−1",0.092 µg/mL
same,ED50 of fungicide,"Botrytis cinerea; Table 12, with endochitinase from G. virens strain 41 at 50 μg ml^−1",0.06 µg/mL
same,ED50 of fungicide,"Botrytis cinerea; Table 12, with endochitinase from G. virens strain 41 at 75 μg ml^−1",0.04 µg/mL
same,ED50 of fungicide,"Botrytis cinerea; Table 12, with endochitinase from G. virens strain 41 at 100 μg ml^−1",0.025 µg/mL
same,ED50,[2],5.0 (4.5-5.5) ng ml^−1
